Where a name gives a salt, the structure may show the parent alone.
Assays:
[1] = test system: PG-NNOP neural organoids; experiment: Gene expression (Ampliseq transcriptomics) in PG-NNOP neural organoids treated with drug; assay type: cell-based, human
Text: Furthermore, in one embodiment RNA from neural organoids for Alzheimer's disease, are converted to DNA libraries and then the representative DNA libraries are sequenced using exon-specific primers for 20,814 genes using the AmpliSeq™ technique available commercially from ThermoFisher. Reads in counts per […] (cpm)<1 are considered background noise. All cpm data are normalized data and the reads are a direct representation of the abundance of the RNA for each gene. In another informative embodiment, RNA from neural organoids for Progeroid syndromes were converted to DNA libraries and then sequenced according to this protocol.
Neural Organoids derived from induced pluripotent stem cells derived from adult skin cells of AD, ADRD, MED, or Hutchinson Gilford progeria (PG) patients were grown in vitro for […] as previous described in U.S. Pat. No. 11,435,890, incorporated by reference in its entirety herein. Transcriptomic data from these neural organoids were obtained. Differences in expression of 20,814 genes expressed in the human genome were determined between these neural organoids and those from neural organoids from a normal individual human (an individual not having/diagnosed with AD, ADRD, MED, or Progeroid syndromes). Detailed data analysis using Gene Card and Pubmed data bases were performed. […] These genes comprise a suite of biomarkers for Alzheimer's disease.
Thus, given the overlap in transcriptomic profile of AD and PG, experiments were set out to test the effect of targeting this receptor on PG-NNOP. FAAH inhibitor PF-3845, which is known to raise endogenous levels of endocannabinoid anandamide receptor agonist anandamide and increase endocannabinoid anandamide receptor activity, was tested for effects on gene expression dysregulation in PG-NNOP platform cells as set forth herein (Table 7). […] As the log 2 fold numbers reveal, the direction of the change in gene expression was completely reversed in some biomarkers by PF-3845, or the change was reduced by PF-3845. Thus, PF-3845 was capable of reverting the biomarkers of PG to normalcy.
Expression of differentially expressed genes in PG-NNOP neural organoids compared to Normal-NNOP in culture for 12 weeks is shown, as well as expression of differentially expressed genes in PG-NNOP neural organoids with PF-3845 treatment compared to PG-NNOP without drug treatment in culture for 12 weeks. […] PG-NNOP neural organoids were incubated with vehicle (0.1% DMSO; control) or PF-3845 dissolved in DMSO at 10microM for 4 days and harvested for RNA extraction and gene expression analysis by Ampliseq™ (Thermofisher). Log 2 fold change with a positive value indicates a decrease in expression of a PG-NNOP gene when compared to Normal-NNOP or a PG-NNOP gene with FAAH-I compared to PG-NNOP without the drug treatment, and with a negative number indicates an increase in gene expression.
Expression of differentially expressed genes in PG-NNOP neural organoids compared to Normal-NNOP in culture for 12 weeks and expression of differentially expressed genes in PG-NNOP neural organoids with metformin treatment compared to PG-NNOP without drug treatment in culture for 12 weeks is shown. […] PG-NNOP neural organoids were incubated with vehicle (HBBS; control) or metformin dissolved in HBBS at 0.28 mg/ml for 4 days and harvested for RNA extraction and gene expression analysis by Ampliseq™ (Thermofisher). Log 2 fold change with a positive value indicates a decrease in expression of a PG-NNOP gene when compared to Normal-NNOP or a PG-NNOP gene with Metformin compared to PG-NNOP without the drug treatment, and with a negative number indicates an increase in gene expression.
Expression of differentially expressed genes in PG-NNOP neural organoids compared to Normal-NNOP in culture for 12 weeks and expression of differentially expressed genes in PG-NNOP neural organoids with rapamycin treatment compared to PG-NNOP without drug treatment in culture for 12 weeks is shown. […]

[2] = cited from earlier work
[3] = cited from earlier work; remark: listed apart in the source
[4] = test system: AD-NNOP-ApoE neural organoids; experiment: Gene expression (Ampliseq transcriptomics) in AD-NNOP-ApoE neural organoids treated with CGS-21680; assay type: cell-based, human
Text: Reads in counts per minute (cpm)<1 are considered background noise. All cpm data are normalized data and the reads are a direct representation of the abundance of the RNA for each gene.
Expression of differentially expressed genes in PG-NNOP neural organoids compared to Normal-NNOP in culture for 12 weeks.

[5] = 10microM, 4 days, vs PG-NNOP without drug, positive = decrease in expression
[6] = 50 nM, 4 days, vs PG-NNOP without drug, positive = decrease in expression
[7] = 0.28 mg/ml, 4 days, vs PG-NNOP without drug, positive = decrease in expression

SMILES: O=C(Nc1cccnc1)N1CCC(Cc2cccc(Oc3ccc(C(F)(F)F)cn3)c2)CC1 [PF-3845, N-3-Pyridinyl-4-[[3-[[5-(trifluoromethyl)-2-pyridinyl]oxy]phenyl]methyl]-1-piperidinecarboxamide]
- effect on dysregulated gene expression in PG-NNOP [1]: effective in correcting the gene expression that was altered in PG-NNOP
- Log2 Fold Change of CDKN1A gene expression [1, 5]: 0.77
- Log2 Fold Change of EZH2 gene expression [1, 5]: −0.5
- Log2 Fold Change of ID2 gene expression [1, 5]: 0.35
- Log2 Fold Change of IDI1 gene expression [1, 5]: 1.15
- Log2 Fold Change of LMNB2 gene expression [1, 5]: −0.67
- Log2 Fold Change of MT2A gene expression [1, 5]: 2.77
- Log2 Fold Change of SLC35F1 gene expression [1, 5]: −0.65
- Log2 Fold Change of SLC38A1 gene expression [1, 5]: −0.57
- Log2 Fold Change of USP31 gene expression [1, 5]: 0.62

SMILES: COc1ccc(C2CNC(=O)C2)cc1OC1CCCC1 (stereo not drawn) [Rolipram]
- IC50 [2]: 800 nM

SMILES: CO[C@H]1C[C@@H]2CC[C@@H](C)[C@@](O)(O2)C(=O)C(=O)N2CCCC[C@H]2C(=O)O[C@H]([C@H](C)C[C@@H]2CC[C@@H](O)[C@H](OC)C2)CC(=O)[C@H](C)/C=C(\C)[C@@H](O)[C@@H](OC)C(=O)[C@H](C)C[C@H](C)/C=C/C=C/C=C/1C [Rapamycin]
- effect on dysregulated gene expression in PG-NNOP [1]: shifted the gene expression towards normalcy
- Log2 Fold Change of CDKN1A gene expression [1, 6]: 1.21
- Log2 Fold Change of IDI1 gene expression [1, 6]: 1.48
- Log2 Fold Change of LMNB2 gene expression [1, 6]: −0.96
- Log2 Fold Change of MT2A gene expression [1, 6]: 3.23
- Log2 Fold Change of POLE3 gene expression [1, 6]: 0.75
- Log2 Fold Change of SLC35F1 gene expression [1, 6]: −0.83
- Log2 Fold Change of SLC38A1 gene expression [1, 6]: −1.15
- Log2 Fold Change of USP36 gene expression [1, 6]: 0.99

SMILES: CN(C)C(=N)NC(=N)N [Metformin]
- effect on dysregulated gene expression in PG-NNOP [1]: shifted the gene expression towards normalcy
- Log2 Fold Change of CDK1 gene expression [1, 7]: 0.52
- Log2 Fold Change of CDKN1A gene expression [1, 7]: −0.35
- Log2 Fold Change of DNAJC1 gene expression [1, 7]: −0.26
- Log2 Fold Change of ID2 gene expression [1, 7]: 0.86
- Log2 Fold Change of LMNB2 gene expression [1, 7]: −0.42
- Log2 Fold Change of MT2A gene expression [1, 7]: 2.06
- Log2 Fold Change of POGZ gene expression [1, 7]: 0.36
- Log2 Fold Change of POLE3 gene expression [1, 7]: −0.25
- Log2 Fold Change of SLC35F1 gene expression [1, 7]: −0.47
- Log2 Fold Change of USP31 gene expression [1, 7]: 0.67
- Log2 Fold Change of VCP gene expression [1, 7]: 0.33
- Log2 Fold Change of WRN gene expression [1, 7]: 0.71

SMILES: CCNC(=O)[C@H]1O[C@@H](n2cnc3c(N)nc(NCCc4ccc(CCC(=O)O)cc4)nc32)[C@H](O)[C@@H]1O [CGS-21680, 2-p-(2-Carboxyethyl) phenethylamino-5′-N-ethylcarboxamidoadenosine hydrochloride hydrate]
- soluble in 45% (w/v) aq 2-hydroxypropyl-β-cyclodextrin ([3]; 45% (w/v) aq 2-hydroxypropyl-β-cyclodextrin): ≤ 20 mg/mL
- soluble in DMSO ([3]; DMSO): up to 3.4 mg/mL
- effect on dysregulation of SLC7A5 and MT2A [4]: the dysregulation was corrected
- effect on gene expression dysregulated in both AD-ApoE-NNOP and PG-NNOP ([4]; 1 micromolar): significantly altered gene expression
- effect on changes in expression of SELENBP1 and RARB in AD-ApoE-NNOP ([4]; direction towards normalcy): reduced the changes in expression of both genes

SMILES: CCNC(=O)[C@H]1O[C@@H](n2cnc3c(N)nc(C#CC[C@H]4CC[C@H](C(=O)OC)CC4)nc32)[C@H](O)[C@@H]1O [Apadenoson, methyl (1R,4r)-4-(3-(6-amino-9-((2R,3R,4S,5S)-5-(ethylcarbamoyl)-3,4-dihydroxytetrahydrofuran-2-yl)-9H-purin-2-yl)prop-2-yn-1-yl)cyclohexane-1-carboxylate]
- solubility in DMSO ([3]; DMSO): Soluble in DMSO
